Activity calls are given as the source filed them. No cut-off for these calls is given here.
How the values were obtained:
Rattus norvegicus [1] = test: Antiinflammatory activity in rat assessed as inhibition of carrageenan-induced paw edema at 50 mg/kg, po measured at 360 mins after carrageenan challenge by plethysmographic analysis; type: functional; settings: 6 h
Rattus norvegicus [2] = test: Antiinflammatory activity in rat assessed as inhibition of carrageenan-induced paw edema at 50 mg/kg, po measured at 270 mins after carrageenan challenge by plethysmographic analysis; type: functional; settings: 4.5 h
Rattus norvegicus [3] = test: Antiinflammatory activity in rat assessed as inhibition of carrageenan-induced paw edema at 50 mg/kg, po measured at 180 mins after carrageenan challenge by plethysmographic analysis; type: functional; settings: 3 h
Rattus norvegicus [4] = test: Antiinflammatory activity in rat assessed as inhibition of carrageenan-induced paw edema at 50 mg/kg, po measured at 90 mins after carrageenan challenge by plethysmographic analysis; type: functional; settings: 1.5 h
Ovis aries = species on record: Ovis aries; test: Selectivity ratio of ovine COX1 to ovine COX2 at 20 uM
[5] = biological target: T1, Prostaglandin G/H synthase 1 (Ovis aries) (UniProt P05979); test: Inhibition of ovine COX1 peroxidase activity assessed as TMPD oxidation at 20 uM by colorimetric analysis
T1 sequence (whole entry): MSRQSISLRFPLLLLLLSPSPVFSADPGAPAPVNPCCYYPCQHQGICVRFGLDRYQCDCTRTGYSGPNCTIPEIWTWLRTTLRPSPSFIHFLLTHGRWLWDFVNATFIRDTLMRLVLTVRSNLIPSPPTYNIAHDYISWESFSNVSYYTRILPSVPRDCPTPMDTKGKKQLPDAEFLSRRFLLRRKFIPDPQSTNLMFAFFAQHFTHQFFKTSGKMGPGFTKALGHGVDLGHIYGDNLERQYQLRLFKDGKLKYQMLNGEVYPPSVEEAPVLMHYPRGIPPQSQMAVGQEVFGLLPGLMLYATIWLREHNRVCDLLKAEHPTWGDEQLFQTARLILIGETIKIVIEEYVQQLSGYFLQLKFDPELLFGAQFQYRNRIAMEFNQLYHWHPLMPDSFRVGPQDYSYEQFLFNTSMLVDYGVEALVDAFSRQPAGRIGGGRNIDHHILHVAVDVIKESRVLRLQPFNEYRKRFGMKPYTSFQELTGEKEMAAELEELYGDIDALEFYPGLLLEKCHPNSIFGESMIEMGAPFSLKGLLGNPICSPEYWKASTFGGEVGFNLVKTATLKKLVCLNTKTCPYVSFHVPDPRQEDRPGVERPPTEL

Selectivity ratio (Ovis aries) | inhibition [5] | Structure (SMILES) | inhibition in vivo at 50 mg/kg (Rattus norvegicus [1]) [%] | inhibition in vivo at 50 mg/kg (Rattus norvegicus [2]) [%] | inhibition in vivo at 50 mg/kg (Rattus norvegicus [3]) [%] | inhibition in vivo at 50 mg/kg (Rattus norvegicus [4]) [%]
0.577 | 41% | COc1ccc(N2C(=O)c3ccccc3NC2c2ccc(S(C)(=O)=O)cc2)cc1 (configuration not stated) | 49 | 47 | 43 | 39
 |  | CSc1ccc(C2Nc3ccccc3C(=O)N2c2ccccc2F)cc1 (configuration not stated) | 41 | 39 | 37 | 33
0.278 | 15% | CS(=O)(=O)c1ccc(C2Nc3ccccc3C(=O)N2c2ccccc2F)cc1 (configuration not stated) | 44 | 42 | 39 | 36
 |  | CSc1ccc(C2Nc3ccccc3C(=O)N2c2ccccc2)cc1 (configuration not stated) | 39 | 37 | 34 | 30
0.742 | 49% | CS(=O)(=O)c1ccc(C2Nc3ccccc3C(=O)N2c2ccccc2)cc1 (configuration not stated) | 40 | 38 | 35 | 31
> 0.01 | inactive | Cc1ccc(N2C(=O)c3ccccc3NC2c2ccc(S(C)(=O)=O)cc2)cc1 (configuration not stated) | 40 | 39 | 35 | 34
 |  | CSc1ccc(C2Nc3ccccc3C(=O)N2c2ccc(F)cc2)cc1 (configuration not stated) | 44 | 42 | 39 | 32
> 0.001 | inactive | CS(=O)(=O)c1ccc(C2Nc3ccccc3C(=O)N2c2ccc(F)cc2)cc1 (configuration not stated) | 48 | 45 | 43 | 38
 |  | COc1ccc(N2C(=O)c3ccccc3NC2c2ccc(SC)cc2)cc1 (configuration not stated) | 40 | 38 | 35 | 33
 |  | CSc1ccc(C2Nc3ccccc3C(=O)N2c2ccc(C)cc2)cc1 (configuration not stated) | 39 | 38 | 34 | 30
> 0.001 | inactive | CS(=O)(=O)c1ccc(C2Nc3ccccc3C(=O)N2c2ccc(Cl)cc2)cc1 (configuration not stated) | 51 | 46 | 42 | 37
0.055 | 5% | CSc1ccc(C2Nc3ccccc3C(=O)N2c2ccc(Cl)cc2)cc1 (configuration not stated) | 47 | 46 | 41 | 38

From ChEMBL document CHEMBL2203087, “Analogue-based design, synthesis and docking of non-steroidal anti-inflammatory agents. Part 2: methyl sulfanyl/methyl sulfonyl substituted 2,3-diaryl-2,3-dihydro-1H-quinazolin-4-ones” (Bioorg Med Chem, 2012)
